The text below walks through data of EPA's ToxValDB 9.5 (doi:10.2903/j.efsa.2010.1833).

The test system of one series is Aleochara bilineata. The settings on record: chronic/long-term; duration: 77 days; reproduction.
A further series concerns Coturnix japonica. The following applies: acute; oral; diet; mortality.
In a further series the test system is Folsomia candida. The settings on record: chronic/long-term; duration: 28 days; mortality.
The next series relates to Landoltia sp. The following applies: chronic/long-term; duration: 14 days; other.
In another series the test system is Lepomis macrochirus. The following applies: acute; duration: 96 hours; mortality.
For the next series, the system named is Pleurozium sp. The settings on record: acute; duration: 72 hours.
The next series concerns Rattus norvegicus. The settings on record: for LD50: acute, mortality.
The next series relates to Tagia sp. The following applies: acute; duration: 14 days; mortality.
The next series concerns Canidae. The settings on record: subchronic; duration: 90 days; oral; gavage; Dog Other; body weight.
A further series relates to Mus musculus. The following applies: acute, oral, mortality.

One may read the NOAEL as the highest tested level that showed no adverse finding.

Converted amounts (≈) assume the structure as drawn. Where only a bound is given, the exact number is not on record here.

Consider `CN1CSC(=S)N(C)C1` [Dazomet], for which the LEL with Aleochara bilineata and with Folsomia candida was 485000 g/ha throughout. Further, the NOEL with Anas platyrhynchos (reproductive) is 16.7 mg/kg-day; with Colinus virginianus (reproduction developmental), 10.6 mg/kg-day. Also, the LC50 with Anas platyrhynchos (short-term, oral, feed, mortality) was over 341 mg/kg-day; in the series on Colinus virginianus (acute, oral, diet, mortality), 197 mg/kg-day; in the series on Coturnix japonica, over 1220 mg/kg-day; with Lepomis macrochirus, 0.3 µg/mL (≈ 1.85 µM); in the series on Tagia sp. it was 6.5 mg/kg. The LD50 in the series on Colinus virginianus (acute, oral, mortality) was over 415 mg/kg-day; in the series on Rattus norvegicus (oral, F) it was 415 mg/kg-day; in the series on Rattus norvegicus (oral, M), 596 mg/kg-day. The NOEC turned out to be 0.306 mg/L in the series with Landoltia sp. and 0.056 mg/L in the series on Pleurozium sp.. Further, the NOAEL in the series with Rattus norvegicus (chronic, duration: 2 years, oral, diet, hematological) is 0.9 mg/kg-day; in the series on Rattus norvegicus (developmental, development) it was 3 mg/kg-day; in the series on Rattus norvegicus (reproduction developmental, reproduction), 18 mg/kg-day; in the series with Rattus norvegicus (subchronic, duration: 90 days, oral, diet, organ weight), 1.5 mg/kg-day.
`CN=C=S` [Methyl isothiocyanate]: the NOAEL stood at 0.4 mg/kg-day in the series with Canidae and 3 mg/kg-day with Rattus norvegicus (reproduction developmental, body weight). Besides, the LD50 with Mus musculus (F) worked out at 100 mg/kg-day; in the series on Mus musculus (M) it was 120 mg/kg-day.
